Reference: ChEMBL document CHEMBL4052647, “Synthesis and pharmacological evaluation of novel chromone derivatives as balanced multifunctional agents against Alzheimer's disease” (Bioorg Med Chem, 2017)
pIC50: −log10 of the molar value. The source made the active and inactive calls. The calls are words filed in the database; no cut-off is given here.

How the values were obtained:
[1] = molecular target: T1, Amine oxidase [flavin-containing] A (Homo sapiens, UniProt P21397); test: Inhibition of recombinant human MAO-A expressed in baculovirus infected BTI insect cells using p-tyramine as substrate pretreated for 15 mins followed by substrate addition after 20 mins by Amplex red reagent based fluorimetric method
T1 sequence (P21397 whole entry): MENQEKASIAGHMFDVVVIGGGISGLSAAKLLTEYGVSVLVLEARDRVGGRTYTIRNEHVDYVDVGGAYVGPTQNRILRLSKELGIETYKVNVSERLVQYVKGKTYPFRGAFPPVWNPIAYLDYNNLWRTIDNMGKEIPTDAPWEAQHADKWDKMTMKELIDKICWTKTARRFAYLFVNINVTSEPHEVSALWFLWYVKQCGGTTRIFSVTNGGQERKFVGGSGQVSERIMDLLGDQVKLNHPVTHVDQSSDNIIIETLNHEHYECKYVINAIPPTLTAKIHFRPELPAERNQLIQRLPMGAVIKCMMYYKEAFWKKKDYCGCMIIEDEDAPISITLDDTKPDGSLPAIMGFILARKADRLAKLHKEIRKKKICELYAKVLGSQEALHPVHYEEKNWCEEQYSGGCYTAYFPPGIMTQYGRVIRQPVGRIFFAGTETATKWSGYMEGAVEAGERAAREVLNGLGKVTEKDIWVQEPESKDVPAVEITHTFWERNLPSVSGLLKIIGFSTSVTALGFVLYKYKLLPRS

[2] = organism: Homo sapiens; test: Selectivity index, ratio of IC50 for recombinant human MAO-A expressed in baculovirus infected BTI insect cells to IC50 for recombinant human MAO-B expressed in baculovirus infected BTI insect cells
[3] = Antioxidant activity assessed as trolox equivalent of […]-induced radical scavenging activity at 1 to 10 uM preincubated for 15 mins followed by AAPH addition measured every minute for 120 mins by ORAC fluorescein assay; format: functional
[4] = molecular target: Amyloid-beta precursor protein (Homo sapiens) (UniProt P05067); test: Inhibition of HFIP-pretreated amyloid beta (1 to 42) (unknown origin) self-induced aggregation at 20 uM after 46 to 48 hrs by thioflavin-T fluorescence assay relative to control
[5] = system: PC-12; test: Cytotoxicity against rat PC12 cells at 20 uM after 24 hrs by MTT assay; format: cell-based; details: pc-12, 24 h
[6] = molecular target: T2, Amine oxidase [flavin-containing] B (Homo sapiens, UniProt P27338); test: biochemical; format: cell-based
T2 sequence (P27338 whole entry): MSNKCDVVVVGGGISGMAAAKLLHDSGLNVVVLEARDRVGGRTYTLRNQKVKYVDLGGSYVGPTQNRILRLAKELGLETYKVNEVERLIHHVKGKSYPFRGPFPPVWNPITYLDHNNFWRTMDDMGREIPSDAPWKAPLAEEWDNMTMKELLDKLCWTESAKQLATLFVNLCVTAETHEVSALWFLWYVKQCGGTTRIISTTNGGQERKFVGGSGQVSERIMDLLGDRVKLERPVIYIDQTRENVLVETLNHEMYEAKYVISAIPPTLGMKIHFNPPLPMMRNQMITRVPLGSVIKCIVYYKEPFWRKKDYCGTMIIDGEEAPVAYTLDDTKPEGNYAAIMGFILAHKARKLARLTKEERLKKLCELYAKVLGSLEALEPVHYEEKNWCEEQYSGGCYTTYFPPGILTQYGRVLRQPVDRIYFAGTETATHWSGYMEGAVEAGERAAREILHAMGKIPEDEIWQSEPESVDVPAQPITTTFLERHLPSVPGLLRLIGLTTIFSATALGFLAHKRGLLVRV
Description: Inhibition of recombinant human MAO-B expressed in baculovirus infected BTI insect cells using p-tyramine as substrate pretreated for 15 mins followed by substrate addition after 20 mins by Amplex red reagent based fluorimetric method

[7] = Metal chelating activity assessed as mole fraction of compound required to show 1:1 stoichiometry for Cu2+-compound complex by Job's plot method
[8] = Metal chelating activity of the compound assessed as formation of zinc-compound complex at 50 uM after 20 mins by fluorescence emission spectral analysis
[9] = system: PC-12; test: Neuroprotective activity against H2O2-induced cell death in rat PC12 cells assessed as increase in cell viability at 1 to 5 uM pretreated for 24 hrs followed by H2O2 induction after 24 hrs by MTT assay; format: functional, cell-based
[10] = Metal chelating activity of the compound assessed as formation of ferric-compound complex at 50 uM after 30 mins by UV-vis spectrophotometric method
[11] = Metal chelating activity of the compound assessed as formation of Cu2+-compound complex at 50 uM after 30 mins by UV-vis spectrophotometric method
[12] = Metal chelating activity of the compound assessed as formation of ferric-compound complex at 50 uM after 20 mins by fluorescence emission spectral analysis
[13] = system: PC-12; test: Neuroprotective activity against H2O2-induced cell death in rat PC12 cells assessed as increase in cell viability at 10 uM pretreated for 24 hrs followed by H2O2 induction after 24 hrs by MTT assay; format: functional, cell-based
[14] = system: PC-12; test: Neuroprotective activity against H2O2-induced cell death in rat PC12 cells assessed as increase in cell viability at 20 uM pretreated for 24 hrs followed by H2O2 induction after 24 hrs by MTT assay; format: functional, cell-based
[15] = Metal chelating activity of the compound assessed as formation of Cu2+-compound complex at 50 uM after 20 mins by fluorescence emission spectral analysis
[16] = system: PC-12; test: Neuroprotective activity against H2O2-induced oxidative stress in rat PC12 cells assessed as reduction in intracellular reactive oxygen species level after 24 hrs by DCFH-DA probe based flow cytometric analysis; format: functional, cell-based
[17] = Metal chelating activity of the compound assessed as formation of ferrous-compound complex at 50 uM after 30 mins by UV-vis spectrophotometric method
[18] = Metal chelating activity assessed as inhibition of Cu2+-induced amyloid beta (1 to 42 residues) aggregation by measuring reduction in amyloid fibrils at 50 uM […] by uranyl acetate staining based transmission electron microscopic analysis
[19] = physchem; details: PAMPA
[20] = Metal chelating activity assessed as inhibition of Cu2+-induced amyloid beta (1 to 42 residues) aggregation at 50 uM after 24 hrs by thioflavin-T fluorescence assay (reference value: 142%)
[21] = Metal chelating activity of the compound assessed as formation of ferrous-compound complex at 50 uM after 20 mins by fluorescence emission spectral analysis
[22] = physchem; details: PAMPA, pH 7.4

Chain of Amyloid-beta precursor protein (Homo sapiens) (P05067 whole entry): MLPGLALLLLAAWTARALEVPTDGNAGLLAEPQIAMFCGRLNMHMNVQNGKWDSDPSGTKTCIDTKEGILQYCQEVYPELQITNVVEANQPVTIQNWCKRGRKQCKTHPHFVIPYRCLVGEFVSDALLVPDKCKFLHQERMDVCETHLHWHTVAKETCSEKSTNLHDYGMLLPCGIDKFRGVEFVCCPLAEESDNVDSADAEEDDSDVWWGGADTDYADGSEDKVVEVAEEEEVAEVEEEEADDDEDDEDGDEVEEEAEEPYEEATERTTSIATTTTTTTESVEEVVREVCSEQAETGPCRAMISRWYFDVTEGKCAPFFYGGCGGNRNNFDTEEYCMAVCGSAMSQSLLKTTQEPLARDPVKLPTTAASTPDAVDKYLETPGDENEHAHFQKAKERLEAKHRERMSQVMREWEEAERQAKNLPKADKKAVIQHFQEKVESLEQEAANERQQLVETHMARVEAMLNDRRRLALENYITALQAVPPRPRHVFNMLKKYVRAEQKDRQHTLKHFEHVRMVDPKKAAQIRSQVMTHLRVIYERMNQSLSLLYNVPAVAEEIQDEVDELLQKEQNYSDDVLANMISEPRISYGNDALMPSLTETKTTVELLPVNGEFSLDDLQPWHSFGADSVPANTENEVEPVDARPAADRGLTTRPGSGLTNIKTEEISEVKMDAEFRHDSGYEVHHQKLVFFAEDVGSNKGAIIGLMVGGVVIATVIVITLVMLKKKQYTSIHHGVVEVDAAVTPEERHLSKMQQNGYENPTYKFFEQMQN

## O=c1c(/C=N/c2ccc(Cl)cc2O)coc2ccc(Br)cc12
[1]
  pIC50: 5.50
[2]
  Ratio IC50: 2.47
[3]
  Activity: 1.92 equiv
[4]
  inhibition: 87.6%
[5]
  Activity: Non-Toxic
[6]
  pIC50: 5.89

## Cc1ccc(/N=C/c2coc3ccc(C)cc3c2=O)c(O)c1
[1]
  pIC50: 4.68
[2]
  Ratio IC50: 0.97
[3]
  Activity: 2.48 equiv
[4]
  inhibition: 45.6%
[5]
  Activity: Non-Toxic
[6]
  pIC50: 4.67

## Cc1ccc(O)c(/N=C/c2coc3ccc(C)cc3c2=O)c1
[1]
  pIC50: 5.29
[7]
  Activity: 0.55 molar ratio
[8]
  Activity: Active
[9]
  Activity: Active
[10]
  Activity: Active
[11]
  Activity: Active
[12]
  Activity: Active
[2]
  Ratio IC50: 6.21
[13]
  Activity: inactive
[14]
  Activity: inactive
[3]
  Activity: 3.62 equiv
[4]
  inhibition: 75.1%
[15]
  Activity: Active
[16]
  Activity: Dose-dependent effect
[17]
  Activity: Active
[5]
  Activity: Non-Toxic
[6]
  pIC50: 6.09
[18]
  inhibition: Active
[19]
  Papp at 16 h: 4.94 ×10⁻⁶ cm/s
[20]
  inhibition: 60.3%
[21]
  Activity: Active

## O=c1c(/C=N/c2cc3ccccc3cc2O)coc2ccccc12
[1]
  pIC50: 5.47
[2]
  Ratio IC50: 0.52
[3]
  Activity: 1.82 equiv
[4]
  inhibition: 66.5%
[5]
  Activity: Non-Toxic
[6]
  pIC50: 5.19

## O=c1c(/C=N/c2ccc(F)cc2O)coc2ccc(Br)cc12
[1]
  pIC50: 5.57
[2]
  Ratio IC50: 3.56
[3]
  Activity: 2.73 equiv
[4]
  inhibition: 71.5%
[5]
  Activity: Non-Toxic
[6]
  pIC50: 6.12

## O=c1c(/C=N/c2cc(Cl)ccc2O)coc2ccc(Br)cc12
[1]
  pIC50: 5.34
[2]
  Ratio IC50: 1.39
[3]
  Activity: 2.16 equiv
[4]
  inhibition: 72.1%
[5]
  Activity: Non-Toxic
[6]
  pIC50: 5.48

## Cc1ccc2occ(/C=N/c3cc(F)ccc3O)c(=O)c2c1
[1]
  pIC50: 5.42
[2]
  Ratio IC50: 1.64
[3]
  Activity: 2.92 equiv
[4]
  inhibition: 87.3%
[5]
  Activity: Non-Toxic
[6]
  pIC50: 5.63

## NCCc1ccc(O)c(O)c1 [DOPAMINE]
[22]
  Papp at 18 h, 25 ug/ml: 0.8 ×10⁻⁶ cm/s
[19]
  Papp at 16 h: 1.32 ×10⁻⁶ cm/s

## O=c1c(/C=N/c2cc(F)ccc2O)coc2ccccc12
[1]
  pIC50: 5.33
[2]
  Ratio IC50: 2.61
[3]
  Activity: 2.6 equiv
[4]
  inhibition: 64.5%
[5]
  Activity: Non-Toxic
[6]
  pIC50: 5.75

## Cc1ccc2occ(/C=N/c3cc(Cl)ccc3O)c(=O)c2c1
[1]
  pIC50: 5.67
[2]
  Ratio IC50: 3.39
[3]
  Activity: 2.61 equiv
[4]
  inhibition: 71.9%
[5]
  Activity: Non-Toxic
[6]
  pIC50: 6.20

## Cc1ccc2occ(/C=N/c3ncccc3O)c(=O)c2c1
[1]
  pIC50: 5.13
[2]
  Ratio IC50: 3.62
[3]
  Activity: 2.03 equiv
[4]
  inhibition: 63.4%
[5]
  Activity: Non-Toxic
[6]
  pIC50: 5.69

## Cc1c(C)c2c(c(C)c1O)CCC(C)(C(=O)O)O2 (stereo not given)
[13]
  Activity: Active

## Cc1ccc2occ(/C=N/c3cc([N+](=O)[O-])ccc3O)c(=O)c2c1
[1]
  pIC50: 5.14
[2]
  Ratio IC50: 4.43
[3]
  Activity: 2.73 equiv
[4]
  inhibition: 71.2%
[5]
  Activity: Non-Toxic
[6]
  pIC50: 5.79

## O=c1c(/C=N/c2ccc(Cl)cc2O)coc2ccccc12
[1]
  pIC50: 5.85
[2]
  Ratio IC50: 0.8
[3]
  Activity: 2.36 equiv
[4]
  inhibition: 51.5%
[5]
  Activity: Non-Toxic
[6]
  pIC50: 5.75
